In patent US20120115848A1, “Inhibitors of Polo-Like Kinase” (ELAN PHARMACEUTICALS, INC., priority 2010, published 2012):

Key:
[1] = test system: HEK-293 cells expressing α-synuclein and PLK2; test: 293-Syn/PLK2 cell assay (ratio of p-Ser-129 α-synuclein to total synuclein, ELISA); format: cell-based; settings: for IC50: Homo sapiens, HEK293, HEK-293 cells expressing α-synuclein and PLK2, ratio of phosphorylated synuclein to total synuclein; for cell activity: cellular IC50 compared to analogous compounds of WO 2011/079118
Method: Compounds as described herein (compounds of Formula I, e.g., compounds of the above Examples) are tested for their activity in HEK-293 cells expressing α-synuclein and PLK2. An exemplary assay procedure is described below.
(1) Plate HEK-293 cells stably transfected with α-synuclein in 10 cm dishes (Corning) at […] in 10% FCS/DMEM. (2) Transfect cells with PLK2 (PLK2-pCMV6 (Origene), at a concentration of 24 μg/dish and 72 μl Fugene6/dish (Roche)). (3) Trypsinize cells the following day and plate at 30,000 cells/well in PDL coated 96 well tissue culture plates (Becton Dickinson). (4) Starting with compounds at a concentration of 10 mM solutions, prepare five 1:3 serial dilutions in DMSO. (5) Dilute test and positive control compound DMSO stocks 1:100 into 10% FCS DMEM. (6) Change the cell media immediately prior to compound treatment, then add compound+DMEM to cells at 1:10 final dilution (final DMSO concentration is 0.1%). (7) After 2 hours, place the cells on ice, remove the media and the rinse cells once with cold phosphate buffered saline (PBS). Remove PBS and lyse the cells using a cell extraction buffer (CEB) (10 mM Tris, pH 7.4, 100 mM NaCl, 1 mM EDTA, 1 mM NaF, 1 mM EGTA, 20 mM Na4P2O7, 2 mM Na3VO4, 0.5% Deoxycholate, 1% TritonX-100, 10% Glycerol, 0.1% SDS) with added protease inhibitors (10 μg/ml leupeptin, 20 μg/ml aprotinin) (8) Freeze plates on dry ice and store at −80°.
Total and p-Ser-129 α-synuclein levels can be quantified with a sandwich ELISA (e.g., using 1H7 as the capture antibody and biotinylated 5C12 and 11A5 as the total and phospho synuclein reporter antibodies respectively; see e.g., J. Biol. Chem. 2006, 281:29739-29752, the disclosure of which is incorporated herein in its entirety). Alpha-synuclein phosphorylated at serine 129 (p-Ser-129 α-synuclein) levels are normalized to the total synuclein measured in each lysate and the ratio of phosphorylated synuclein to total synuclein as a function of compound concentration can be used to determine IC50 of the compounds.

PLK3 = biological target: T1, PLK3 (Homo sapiens, UniProt Q9H4B4); test: PLK TR-FRET peptide assay (PLK3); format: biochemical; settings: class symbols
T1 construct: GST (N)
Method: (§1) Compounds as described herein (compounds of Formula I, e.g., compounds of the above Examples) are tested for their in vitro kinase activities using various PLK assays. An exemplary assay procedure is described below.
(§2) (1) Test compound solution preparation: prepare 4× compound solution in PLK assay buffer (50 mM HEPES, 10 mM MgCl2, 1 mM EGTA, 0.01% Tween-20, pH7.4). DTT is added to the buffer just before the experiment to a final concentration of 2 mM. Add 2.5 μl/well to a black 384-well low volume plate (4% DMSO at this step). (2) Kinase preparation: Prepare 2×GST-PLK 1, 2 or 3 (e.g., CarnaBio) solutions in assay buffer (6 nM for PLK1, 6 nM for PLK2 and 0.2 nM for PLK3). Add 5 μl/well, shake the plate, incubate the enzyme with compound at ret. Time for 15 min. (3) ATP/substrate mixture preparation: Prepare 4× (ATP/ULight-Topo Ha peptide substrate; e.g., Perkin Elmer) mixture in assay buffer (0.4 mM ATP/200 nM peptide). Add 2.5 μl/well, shake the plate and incubate at ret. Time. Reactions time: 60 min for PLK1, 60 min for PLK2 and 15 min for PLK3 (4) EDTA preparation: Dilute 0.5M EDTA to 24 mM with detection buffer. Add 5 μl/well to the plate, shake the plate well for 5 min. (5) Prepare 4× Eu-anti-P-Topo Ha (T1342) (e.g., Perkin Elmer) solution (8 nM) in detection buffer (50 Tris-HCl, 150 mM NaCl, 0.5% BSA, PH7.5). Add 5 μl/well to the plate, shake the plate and incubate at ret. Time for 1 h before reading on Envision at 665 nm/615 nm. The fluorescent signal as a function of compound concentration is used to determine the compound IC50.

PLK1 = biological target: T2, PLK1 (Homo sapiens, UniProt P53350); test: PLK TR-FRET peptide assay (PLK1); format: biochemical
T2 construct: GST (N)
Method: as §1, §2

PLK2 = biological target: T3, PLK2 (Homo sapiens, UniProt Q9NYY3); test: PLK TR-FRET peptide assay (PLK2); format: biochemical; settings: for selectivity relative to PLK1: compared to analogous compounds of WO 2011/079118; for activity with respect to PLK2: in vitro IC50 compared to analogous compounds of WO 2011/079118 (R1 methyl instead of fused ring)
T3 construct: GST (N)
Method: as §1, §2

[2] = PLK TR-FRET peptide assay, class symbols
[3] = comparison with analogous compounds of WO 2011/079118

T1 sequence (Q9H4B4 whole entry): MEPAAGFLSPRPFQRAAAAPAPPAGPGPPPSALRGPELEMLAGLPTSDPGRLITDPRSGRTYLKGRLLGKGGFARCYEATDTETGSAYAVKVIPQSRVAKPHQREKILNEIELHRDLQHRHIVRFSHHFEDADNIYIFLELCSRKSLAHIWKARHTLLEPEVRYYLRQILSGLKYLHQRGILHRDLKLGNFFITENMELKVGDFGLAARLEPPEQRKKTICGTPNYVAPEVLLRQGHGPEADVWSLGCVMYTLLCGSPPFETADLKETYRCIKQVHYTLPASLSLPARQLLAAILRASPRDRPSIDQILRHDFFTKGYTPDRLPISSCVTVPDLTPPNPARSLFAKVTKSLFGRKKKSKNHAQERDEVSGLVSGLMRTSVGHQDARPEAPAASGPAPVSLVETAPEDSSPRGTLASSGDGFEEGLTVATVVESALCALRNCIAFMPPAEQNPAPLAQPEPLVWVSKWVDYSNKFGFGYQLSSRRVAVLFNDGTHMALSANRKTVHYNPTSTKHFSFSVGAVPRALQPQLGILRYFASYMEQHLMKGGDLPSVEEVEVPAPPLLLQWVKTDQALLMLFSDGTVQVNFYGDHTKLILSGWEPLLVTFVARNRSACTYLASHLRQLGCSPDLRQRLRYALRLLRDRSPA
T3 sequence (Q9NYY3 whole entry, the tested form may be a part): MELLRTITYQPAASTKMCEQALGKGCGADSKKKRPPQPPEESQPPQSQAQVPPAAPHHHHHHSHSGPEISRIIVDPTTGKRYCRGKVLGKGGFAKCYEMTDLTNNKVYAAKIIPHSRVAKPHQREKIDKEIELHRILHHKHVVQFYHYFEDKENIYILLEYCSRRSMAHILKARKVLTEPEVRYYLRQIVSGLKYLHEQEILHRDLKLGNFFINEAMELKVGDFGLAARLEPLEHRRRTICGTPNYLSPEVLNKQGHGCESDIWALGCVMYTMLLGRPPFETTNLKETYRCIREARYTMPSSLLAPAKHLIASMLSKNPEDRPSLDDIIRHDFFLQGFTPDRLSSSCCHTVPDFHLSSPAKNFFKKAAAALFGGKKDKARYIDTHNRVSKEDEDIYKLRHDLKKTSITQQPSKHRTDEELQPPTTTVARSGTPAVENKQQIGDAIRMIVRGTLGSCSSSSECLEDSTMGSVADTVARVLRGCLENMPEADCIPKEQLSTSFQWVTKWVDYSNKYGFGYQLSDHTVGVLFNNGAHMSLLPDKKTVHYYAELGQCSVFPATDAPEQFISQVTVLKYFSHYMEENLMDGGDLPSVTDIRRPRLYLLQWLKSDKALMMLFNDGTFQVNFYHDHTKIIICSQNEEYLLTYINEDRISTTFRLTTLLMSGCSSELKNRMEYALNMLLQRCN
T2 sequence (P53350 whole entry): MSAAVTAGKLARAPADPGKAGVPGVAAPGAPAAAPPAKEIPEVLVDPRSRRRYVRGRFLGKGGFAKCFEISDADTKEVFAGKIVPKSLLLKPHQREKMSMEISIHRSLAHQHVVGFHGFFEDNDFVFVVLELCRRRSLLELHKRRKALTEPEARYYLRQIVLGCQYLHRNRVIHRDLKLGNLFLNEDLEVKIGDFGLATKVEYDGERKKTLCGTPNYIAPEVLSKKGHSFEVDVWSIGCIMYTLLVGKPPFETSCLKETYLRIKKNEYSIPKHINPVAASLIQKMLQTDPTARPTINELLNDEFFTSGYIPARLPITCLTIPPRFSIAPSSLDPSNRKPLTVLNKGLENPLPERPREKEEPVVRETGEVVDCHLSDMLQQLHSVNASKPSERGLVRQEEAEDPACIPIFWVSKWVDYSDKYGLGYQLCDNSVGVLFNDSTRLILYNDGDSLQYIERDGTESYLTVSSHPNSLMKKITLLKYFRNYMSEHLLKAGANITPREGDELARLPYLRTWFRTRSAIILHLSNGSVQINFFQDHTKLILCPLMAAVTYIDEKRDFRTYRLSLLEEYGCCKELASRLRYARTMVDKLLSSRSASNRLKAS

IC50 (PLK3) [nM] | IC50 (PLK1; [2]) [nM] | IC50 (PLK1; [3]) [nM] | IC50 (PLK2; [2]) [nM] | selectivity relative to PLK1 (PLK2) | IC50 (PLK2; [3]) [nM] | ratio Plk2 IC50 / Plk1 IC50 (selectivity relative to PLK1) (PLK2; [3]) | activity with respect to PLK2 (PLK2) | SMILES | IC50 [1] [nM] | cell activity [1]
10000 to 50000 | 1000 to 10000 | 6260 | < 1000 | comparable selectivity | 40 | 0.0064 | comparable activity | CC[C@@H]1c2nncn2-c2cnc(-n3ccnc3-c3ccc(F)cc3)nc2N1C1CCC1 [Example 7, (R)-5-Cyclobutyl-4-ethyl-7-(2-(4-fluorophenyl)-1H-imidazol-1-yl)-4,5-dihydro-[1,2,4]triazolo[4,3-f]pteridine] | 2900 | comparable cell activity
 |  | 77 |  |  | 4.5 | 0.058 |  | CC[C@@H]1C(=O)N(C)c2cnc(-n3ccnc3-c3ccccc3F)nc2N1C1CCC1 [PCT Example 49, reference compound] | 420 | 
1000 to 10000 | < 1000 |  | < 1000 |  |  |  |  | CC[C@@H]1c2nncn2-c2cnc(-n3ccnc3-c3cccc(F)c3F)nc2N1C1CCC1 [Example 9, (R)-5-cyclobutyl-7-(2-(2,3-difluorophenyl)-1H-imidazol-1-yl)-4-ethyl-4,5-dihydro-[1,2,4]triazolo[4,3-f]pteridine] |  | 
 |  | 2060 |  |  | 20 |  |  | CC[C@@H]1c2nncn2-c2cnc(-n3ccnc3-c3ccc(F)cc3)nc2N1C1CCC1 [PCT Example 50, reference compound] |  | 
10000 to 50000 | 10000 to 50000 | 14600 | < 1000 | comparable selectivity | 92 | 0.0063 | comparable activity | CC[C@@H]1c2nncn2-c2cnc(-n3ccnc3-c3ccc(F)c(F)c3)nc2N1C1CCC1 [Example 1, (R)-5-Cyclobutyl-7-(2-(3,4-difluorophenyl)-1H-imidazol-1-yl)-4-ethyl-4,5-dihydro-[1,2,4]triazolo[4,3-f]pteridine] | 4400 | comparable cell activity
 |  | 3560 |  |  | 39 | 0.011 |  | CC[C@@H]1C(=O)N(C)c2cnc(-n3ccnc3-c3ccc(F)c(F)c3)nc2N1C1CCC1 [PCT Example 48, reference compound] | 4300 | 
1000 to 10000 | < 1000 | 441 | < 1000 | comparable selectivity | 8.5 | 0.019 | comparable activity | CC[C@@H]1c2nncn2-c2cnc(-n3ccnc3-c3ccccc3)nc2N1C1CCC1 [Example 3, (R)-5-Cyclobutyl-4-ethyl-7-(2-phenyl-1H-imidazol-1-yl)-4,5-dihydro-[1,2,4]triazolo[4,3-f]pteridine] | 420 | comparable cell activity
1000 to 10000 | 1000 to 10000 |  | < 1000 |  |  |  |  | CC[C@@H]1c2nncn2-c2cnc(-c3c[nH]nc3-c3nccs3)nc2N1C1CCC1 [Example 695, (R)-2-(4-(5-cyclobutyl-4-ethyl-4,5-dihydro-[1,2,4]triazolo[4,3-f]pteridin-7-yl)-1H-pyrazol-3-yl)thiazole] |  | 
 |  | 194 |  |  | 7 | 0.036 |  | CC[C@@H]1C(=O)N(C)c2cnc(-n3ccnc3-c3ccccc3)nc2N1C1CCC1 [PCT Example 47, reference compound] | 670 | 
10000 to 50000 | 1000 to 10000 |  | < 1000 |  |  |  |  | CC[C@@H]1c2nncn2-c2cnc(-n3ccnc3-c3ccc(F)cc3F)nc2N1C1CCC1 [Example 11, (R)-5-Cyclobutyl-7-(2-(2,4-difluorophenyl)-1H-imidazol-1-yl)-4-ethyl-4,5-dihydro-[1,2,4]triazolo[4,3-f]pteridine] |  | 
1000 to 10000 | < 1000 | 317 | < 1000 | comparable selectivity | 6 | 0.019 | comparable activity | CC[C@@H]1c2nncn2-c2cnc(-n3ccnc3-c3ccccc3F)nc2N1C1CCC1 [Example 5, (R)-5-cyclobutyl-4-ethyl-7-(2-(2-fluorophenyl)-1H-imidazol-1-yl)-4,5-dihydro-[1,2,4]triazolo[4,3-f]pteridine] | 440 | comparable cell activity
